Measured values taken from patent publication US20010008892A1 (priority 1998, published 2001).
Read-outs that look alike come from different tables or passages of the source.

Columns and labels:
HIV = assay: Antiviral activity: inhibition of the cytopathic effect of HIV in MT4 cells; type: cell-based
From the text: (§1) The IC50 is the concentration of compound that gives 50% inhibition of the cytopathic effect of HIV. The LC50 is the concentration of compound at which 50% of the cells remain viable.

HIV-1 protease = HIV-1 protease (Human immunodeficiency virus type 1 group M subtype B, UniProt P04585); assay: Fluorogenic assay for screening inhibitors of HIV protease; details: for inhibition at 0.0005 µM: pH 4.5, read-out: % Inhib. (0.5 nM); for % Inhib. (0.5 nM): compound concentration 0.5 nM, fluorogenic substrate 1.3 μM, pH 4.5, 30° C.
Experimental: A compound of the invention is dissolved in DMSO. A small aliquot is diluted with DMSO to 100 times the final concentration desired for testing. The test is carried out in a 6×50 mm tube in a total volume of 300 microliters. The final concentrations of the components in the reaction buffer are: 125 mM sodium acetate, 1 M sodium chloride, 5 mM dithiothreitol, 0.5 mg/ml bovine serum albumin, 1.3 μM fluorogenic substrate, 2% (v/v) dimethylsulfoxide, pH 4.5. After addition of inhibitor, the reaction mixture is placed in the fluorometer cell holder and incubated at 30° C. for several minutes. The reaction is initiated by the addition of a small aliquot of cold HIV protease. The fluorescence intensity (excitation 340 nm, emmision 490 nM) is recorded as a function of time. The reaction rate is determined for the first six to eight minutes. The observed rate is directly proportional to the moles of substrate cleaved per unit time. The percent inhibition is 100×(1- (rate in presence of inhibitor)/(rate in absence of inhibitor)).
The test compounds were then tested at a concentration of 0.5 nM.

[1] = Cytotoxicity in MT4 cells (LC50, 50% of the cells remain viable); type: cell-based; details: human
From the text: as §1

MT4 cells = assay: as above; type: cell-based; details: MT4 cells; concentration at which 50% of the cells remain viable
From the text: as §1

[2] = Human immunodeficiency virus 1, MT4 cells, 50% inhibition of the cytopathic effect of HIV, read-out: EC50
[3] = MT4 cells, 50% inhibition of the cytopathic effect of HIV, read-out: EC50

For `CC(C)c1nc(CN(C)C(=O)N[C@H](C(=O)N[C@@H](Cc2ccccc2)[C@H](O)CN2CCN(Cc3cncs3)C[C@H]2C(=O)NC(C)(C)C)C(C)C)cs1` [Example 12, N′-[(1S)-1-[[[(1S,2R)-3-[(2S)-2-[[(1,1-Dimethylethyl)amino]carbonyl]-4-(5-thiazolylmethyl)-1-piperazinyl]-2-hydroxy-1-(phenylmethyl)propyl]amino]carbonyl]-2-methylpropyl]-N-methyl-N-[2-(1-methylethyl)-4-thiazolylmethyl]urea], which EC50 (HIV; [2]) is on record?
The EC50 was 13 nM.

What about the inhibition at 0.0005 µM (HIV-1 protease) of the same compound?
Its inhibition at 0.0005 µM is 61%.

What about the CC50 [1] of the same compound?
Its CC50 is 70300 nM.

Which results are given for `CC(C)c1nc(CN(C)C(=O)N[C@H](C(=O)N[C@@H](Cc2ccccc2)[C@H](O)CN2CCN(Cc3ccccc3)C[C@H]2C(=O)NC(C)(C)C)C(C)C)cs1` [Example 13, N′-[(1S)-1-[[[(1S,2R)-3-[(2S)-2-[[(1,1-Dimethylethyl)amino]carbonyl]-4-(phenylmethyl)-1-piperazinyl]-2-hydroxy-1-(phenylmethyl)propyl]amino]carbonyl]-2-methylpropyl]-N-methyl-N-[2-(1-methylethyl)-4-thiazolylmethyl]urea]?
EC50 (HIV; [2]): 48 nM; inhibition at 0.0005 µM (HIV-1 protease): 66%; CC50 [1]: 60400 nM

For `COc1cc(CN2CCN(C[C@@H](O)[C@H](Cc3ccccc3)NC(=O)[C@@H](NC(=O)N(C)Cc3csc(C(C)C)n3)C(C)C)[C@H](C(=O)NC(C)(C)C)C2)ccc1O` [Example 14, N′-[(1S)-1-[[[(1S,2R)-3-[(2S)-2-[[(1,1-Dimethylethyl)amino]carbonyl]-4-[(4-hydroxy-3-methoxyphenyl)methyl]-1-piperazinyl]-2-hydroxy-1-(phenylmethyl)propyl]amino]carbonyl]-2-methylpropyl]-N-methyl-N-[2-(1-methylethyl)-4-thiazolylmethyl]urea], which EC50 (HIV; [2]) is on record?
Its EC50 is 41 nM.

And the inhibition at 0.0005 µM (HIV-1 protease)?
The inhibition at 0.0005 µM was 63%.

And the CC50 [1]?
Its CC50 is 22700 nM.

Which EC50 (HIV; [3]) does the source give for `COc1ccc(CN2CCN(C[C@@H](O)[C@H](Cc3ccccc3)NC(=O)[C@@H](NC(=O)OCc3cnc(C)s3)C(C)C)[C@H](C(=O)NC(C)(C)C)C2)cc1OC` [Example 21, 2-Methyl-5-thiazolylmethyl-[(1S)-1-[[[(1S,2R)-3-[(2S)-4-[(3,4-dimethoxylphenyl)methyl]-2-[[(1,1-dimethylethyl)amino]carbonyl]-1-piperazinyl]-2-hydroxy-1-(phenylmethyl)propyl]amino]carbonyl]-2-methylpropyl]carbamate] here?
Its EC50 is 11 nM.

What about the “% Inhib. (0.5 nM)” value (HIV-1 protease) of the same compound?
The value was 44%.

What about the CC50 (MT4 cells) of the same compound?
The CC50 was 53000 nM.

With `CC(C)[C@H](NC(=O)N(C)Cc1cncs1)C(=O)N[C@@H](Cc1ccccc1)[C@H](O)CN1CCN(Cc2cncs2)C[C@H]1C(=O)NC(C)(C)C` [Example 23, N′-[(1S)-1-[[[(1S,2R)-3-[(2S)-2-[[(1,1-Dimethylethyl)amino]carbonyl]-4-(5-thiazolylmethyl)-1-piperazinyl]-2-hydroxy-1-(phenylmethyl)propyl]amino]carbonyl]-2-methylpropyl]-N-methyl-N-(5-thiazolylmethyl)urea] as the compound, how does the EC50 (HIV; [2]) read?
Its EC50 is 259 nM.

What about the inhibition at 0.0005 µM (HIV-1 protease) of the same compound?
The inhibition at 0.0005 µM was 51%.

What about the CC50 [1] of the same compound?
The CC50 was > 100000 nM.

For `CC(C)[C@H](NC(=O)OCc1cncs1)C(=O)N[C@@H](Cc1ccccc1)[C@H](O)CN1CCN(Cc2cncs2)C[C@H]1C(=O)NC(C)(C)C` [Example 25], which EC50 (HIV; [3]) is on record?
The EC50 was 57 nM.

And the “% Inhib. (0.5 nM)” value (HIV-1 protease)?
The value was 45%.

What about the CC50 (MT4 cells) of the same compound?
Its CC50 is > 100000 nM.

What does the source list for `CC(C)CN(C[C@@H](O)[C@H](Cc1ccccc1)NC(=O)[C@@H](NC(=O)N(C)Cc1csc(C(C)C)n1)C(C)C)C(=O)NC(C)(C)C` [Example 26]?
EC50 (HIV; Human immunodeficiency virus 1, MT4): 817 nM; inhibition at 0.0005 µM (HIV-1 protease): 42%; CC50 ([1]; MT4 cells, concentration at which 50% of the cells remain viable, read-out: LC50 (the source's name)): 17400 nM

What does the source list for `CC(C)c1nc(CN(C)C(=O)N[C@H](C(=O)N[C@@H](Cc2ccccc2)[C@H](O)CN(C(C)C)S(=O)(=O)c2ccc(N)cc2)C(C)C)cs1` [Example 29, N′-[(1S)-1-[[[(1S,2R)-3-[[(4-Aminophenyl)sulfonyl](1-methylethyl)amino]-2-hydroxy-1-(phenylmethyl)propyl]amino]carbonyl]-2-methylpropyl]-N-methyl-N-[2-(1-methylethyl)-4-thiazolylmethyl]urea]?
EC50 (HIV; [2]): 175 nM; inhibition at 0.0005 µM (HIV-1 protease): 64%; CC50 [1]: 31200 nM

For `CC(C)c1ncc(COC(=O)N[C@H](C(=O)N[C@@H](Cc2ccccc2)[C@H](O)CN2C[C@H]3CCCC[C@H]3C[C@H]2C(=O)NC(C)(C)C)C(C)C)s1` [Example 30, 2-(1-Methylethyl)-5-thiazolylmethyl-[(1S)-1-[[[(1S,2R)-3-[(3S)-3-[[(1,1-dimethylethyl)amino]carbonyl](4aα,8aα)octahydro-2-isoquinolinyl]-2-hydroxy-1-(phenylmethyl)propyl]amino]carbonyl]-2-methylpropyl]carbamate], which EC50 (HIV; [3]) is on record?
The EC50 was 20 nM.

And the “% Inhib. (0.5 nM)” value (HIV-1 protease)?
Its value is 55%.

What about the CC50 (MT4 cells) of the same compound?
Its CC50 is 17900 nM.

With `CC(C)c1ncc(CN(C)C(=O)N[C@H](C(=O)N[C@@H](Cc2ccccc2)[C@H](O)CN2C[C@H]3CCCC[C@H]3C[C@H]2C(=O)NC(C)(C)C)C(C)C)s1` [Example 31, N′-[(1S)-1-[[[(1S,2 R)-3-[(3S)-3-[[(1,1-Dimethylethyl)amino]carbonyl](4aα,8aα)-octahydro-2-isoquinolinyl]-2-hydroxy-1-(phenylmethyl)propyl]amino]carbonyl]-2-methylpropyl]-N-methyl-N-[2-(1-methylethyl)-5-thiazolylmethyl]urea] as the compound, how does the EC50 (HIV; [3]) read?
Its EC50 is 58 nM.

And the “% Inhib. (0.5 nM)” value (HIV-1 protease)?
Its value is 48%.

And the CC50 (MT4 cells)?
Its CC50 is 17200 nM.

Which EC50 (HIV; [2]) does the source give for `CC(C)c1nc(CN(C)C(=O)N[C@H](C(=O)N[C@@H](Cc2ccccc2)[C@H](O)CN2CC[C@@H](OCc3cncs3)C[C@H]2C(=O)NC(C)(C)C)C(C)C)cs1` [Example 32, N′-[(1S)-1-[[[(1S,2R)-3-[(2S,4R)-2-[[(1,1-Dimethylethyl)amino]carbonyl]-4-(5-thiazolylmethoxy)-1-piperidinyl]-2-hydroxy-1-(phenylmethyl)propyl]amino]carbonyl]-2-methylpropyl]-N-methyl-N-[2-(1-methylethyl)-4-thiazolylmethyl]urea] here?
Its EC50 is 15 nM.

What about the inhibition at 0.0005 µM (HIV-1 protease) of the same compound?
The inhibition at 0.0005 µM was 66%.

And the CC50 [1]?
The CC50 was 64100 nM.
